Test results: US20250282746A1, “HALOGEN-SUBSTITUTED ISOINDOLINE COMPOUND AND USE THEREOF” (CHENGDU FENDI PHARMACEUTICAL CO., LTD., priority 2022, published 2025)
Like-named read-outs stand apart in the source and are kept apart here.

Tests used:
GSPT1 protein = target: T1, GSPT1 protein (Homo sapiens, UniProt P15170); experiment: Degradation of GSPT1 protein in NB-4 cells (Western blot); format: cell-based; details: read-out: GSPT1 degradation
T1 construct: The whole cell lysate was prepared using a RIPA lysis buffer; endogenous in cells; host or cells: NB-4 cells
T1 sequence (P15170 whole entry): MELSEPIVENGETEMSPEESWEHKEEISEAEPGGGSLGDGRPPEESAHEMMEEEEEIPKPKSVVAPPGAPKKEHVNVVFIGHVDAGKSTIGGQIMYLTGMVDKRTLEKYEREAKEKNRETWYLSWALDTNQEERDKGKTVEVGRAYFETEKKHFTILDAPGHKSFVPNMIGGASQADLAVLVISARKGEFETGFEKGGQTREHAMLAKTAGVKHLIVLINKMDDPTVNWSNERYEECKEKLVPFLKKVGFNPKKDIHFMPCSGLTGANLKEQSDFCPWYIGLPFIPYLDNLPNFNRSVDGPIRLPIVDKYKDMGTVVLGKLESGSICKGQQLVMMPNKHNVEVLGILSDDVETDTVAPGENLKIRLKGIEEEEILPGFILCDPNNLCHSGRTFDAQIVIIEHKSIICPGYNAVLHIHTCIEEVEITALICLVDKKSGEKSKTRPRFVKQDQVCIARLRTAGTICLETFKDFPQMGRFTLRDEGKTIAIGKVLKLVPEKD
Protocol: 150 μL of DMSO and the compounds (1 μM) were added, and the mixture was incubated in an incubator at 5% CO2 and 37° C. for 6 h. The cells were centrifuged, and the culture medium was discarded. PBS was added for washing and then discarded. The whole cell lysate was prepared using a RIPA lysis buffer containing a protease inhibitor cocktail and a phosphatase inhibitor, and incubated on ice for 30 min. The mixture was centrifuged, and the cell debris was discarded. The whole cell lysate supernatant was collected and transferred to a fresh EP tube. Samples were prepared using a loading buffer after a BCA protein assay. The samples were incubated in a metal bath at 100° C. for 10 min.
The samples were electrophoretically separated from proteins on a 4-20% precast gel (SDS-PAGE gel), transferred to a PVDF membrane, blocked with 5% NFDM/TBST for 1 h at room temperature, co-incubated overnight at 4° C. with the primary antibody, and co-incubated for 2 h at room temperature with the secondary antibody on the next day. The signals were detected on the […]™ imaging system.

MV-4-11 cells = experiment: Antiproliferative activity against MV-4-11 cells (CellTiter-Glo, 72 h); format: cell-based; details: Homo sapiens, read-out: Antiproliferative activity IC50
Protocol: MV411 cells in the logarithmic growth phase were diluted in a medium (RPMI+10% FBS) and plated at 5,000 cells/well in 96-well whole black plates (WHB) with 50 μL/well. After plating, the plates were incubated in an incubator at 5% CO2 and 37° C. for 24 h before the compounds were added. The compounds were prepared into a 10 mM stock solution in DMSO and diluted in a culture medium to the desired concentrations (a final DMSO concentration of 0.2%). […] The plates were incubated at 5% CO2 and 37° C. for 72 h. After the incubation was complete, the plates were equilibrated at room temperature for 30 min. CellTiter-Glo® Reagent (Promega G7573) was added at 100 μL/well. The plates were shaken for 12 min on a microplate shaker. The luminescence value was measured at room temperature by the GloMax navigator (Promega GM2010).

| Compound | inhibition at 1 µM (GSPT1 protein; NB-4 cells, compound 1 μM, 6 h) [%] | IC50 (MV-4-11 cells; MV4-11, MV-4-11 cells, 72 h) [nM] | inhibition at 1 µM (GSPT1 protein; NB-4, 6 h) [%] | IC50 (MV-4-11 cells; MV4-11, 72 h) [nM] |
| --- | --- | --- | --- | --- |
| Cc1ccc(C(=O)NCc2ccc3c(c2F)CN(C2CCC(=O)NC2=O)C3=O)cc1N (centres unmarked) [FDAB-112] | > 80 | 10 to 100 | – | – |
| O=C(C#CC1CC1)NCc1cc2c(cc1F)C(=O)N(C1CCC(=O)NC1=O)C2 (centres unmarked) [FDAB-64] | 50 to 80 | 100 to 1000 | – | – |
| CC(=O)c1ccc(C(=O)NCc2ccc3c(c2F)CN(C2CCC(=O)NC2=O)C3=O)cc1 (centres unmarked) [FDAB-99] | 50 to 80 | 10 to 100 | – | – |
| O=C1CCC(N2Cc3c(ccc(CNC(=O)c4cc5ccccc5o4)c3F)C2=O)C(=O)N1 (centres unmarked) [FDAB-45] | > 80 | 1 to 10 | – | – |
| O=C1CCC(N2Cc3c(ccc(CNC(=O)c4ccc(C(F)(F)F)cc4)c3F)C2=O)C(=O)N1 (centres unmarked) [FDAB-61] | > 80 | 1 to 10 | – | – |
| O=C(COc1c(Cl)cc(Cl)cc1Cl)NCc1ccc2c(c1F)CN(C1CCC(=O)NC1=O)C2=O (centres unmarked) [FDAB-152] | > 80 | < 1 | – | – |
| N#Cc1cc2c(cc1Cl)C(=O)N(C1CCC(=O)NC1=O)C2 (centres unmarked) [FDAB-13] | < 25 | > 1000 | – | – |
| N#Cc1cc2c(cc1F)C(=O)N(C1CCC(=O)NC1=O)C2 (centres unmarked) [FDAB-4] | < 25 | > 1000 | – | – |
| Nc1ccc(C(=O)NCc2cc3c(cc2F)C(=O)N(C2CCC(=O)NC2=O)C3)cc1 (centres unmarked) [FDAB-27] | < 25 | > 1000 | – | – |
| Cc1ccc(C(=O)NCc2ccc3c(c2Cl)CN(C2CCC(=O)NC2=O)C3=O)c(F)c1 (centres unmarked) [FDAB-123] | 50 to 80 | 10 to 100 | – | – |
| CCC#CC(=O)NCc1cc2c(cc1F)C(=O)N(C1CCC(=O)NC1=O)C2 (centres unmarked) [FDAB-63] | < 25 | > 1000 | – | – |
| Cc1nc2cc(C(=O)NCc3cc4c(cc3F)C(=O)N(C3CCC(=O)NC3=O)C4)ccc2s1 (centres unmarked) [FDAB-58] | > 80 | 10 to 100 | – | – |
| CC(C)OC(=O)OCN1C(=O)CCC(N2Cc3c(ccc(CNC(=O)c4ccc(Cl)cc4)c3F)C2=O)C1=O (centres unmarked) [FDAB-128] | – | – | 50 to 80 | 10 to 100 |
| O=C1CCC(N2Cc3cc(CNC(=O)c4ccccn4)c(F)cc3C2=O)C(=O)N1 (centres unmarked) [FDAB-29] | < 25 | > 1000 | – | – |
| O=C1CCC(N2Cc3c(ccc(CNCc4ccc(Oc5ccccc5)cc4)c3F)C2=O)C(=O)N1 (centres unmarked) [FDAB-166] | – | – | > 80 | 1 to 10 |
| O=C1CCC(N2Cc3c(ccc(CNC(=O)c4ccc(Cl)cn4)c3Cl)C2=O)C(=O)N1 (centres unmarked) [FDAB-80] | < 25 | > 1000 | – | – |
| O=C1CCC(N2Cc3cc(CNC(=O)c4ccc(Cl)c(O)c4)c(F)cc3C2=O)C(=O)N1 (centres unmarked) [FDAB-55] | > 80 | 1 to 10 | – | – |
| O=C(CCc1cccc2ccccc12)NCc1cc(F)cc2c1CN(C1CCC(=O)NC1=O)C2=O (centres unmarked) [FDAB-170] | > 80 | 10 to 100 | – | – |
| CC(C)(C)OC(=O)NCc1ccc2c(c1Cl)CN(C1CCC(=O)NC1=O)C2=O (centres unmarked) [FDAB-11] | < 25 | > 1000 | – | – |
| Cc1ccc(C(=O)NCc2ccc3c(c2F)CN(C2CCC(=O)NC2=O)C3=O)c(N)c1 (centres unmarked) [FDAB-111] | < 25 | > 1000 | – | – |
| O=C1CCC(N2Cc3c(ccc(CNC(=O)c4ccc(Cl)c(O)c4)c3Cl)C2=O)C(=O)N1 (centres unmarked) [FDAB-79] | > 80 | 10 to 100 | – | – |
| CC(C)(C)OC(=O)NCc1ccc2c(c1F)CN(C1CCC(=O)NC1=O)C2=O (centres unmarked) [FDAB-2] | < 25 | > 1000 | – | – |
| O=C1CCC(N2Cc3cc(CNC(=O)c4ccc(Cl)cc4)c(F)cc3C2=O)C(=O)N1 (centres unmarked) [FDAB-23] | > 80 | 10 to 100 | – | – |
| O=C1CCC(N2Cc3cc(CNC(=O)c4cccc(O)c4)c(F)cc3C2=O)C(=O)N1 (centres unmarked) [FDAB-36] | < 25 | > 1000 | – | – |
| Cc1ccc(C(=O)NCc2cc3c(cc2F)C(=O)N(C2CCC(=O)NC2=O)C3)cc1 (centres unmarked) [FDAB-51] | > 80 | 10 to 100 | – | – |
| O=C1CCC(N2Cc3c(ccc(CNC(=O)c4ccc(CO)cc4)c3F)C2=O)C(=O)N1 (centres unmarked) [FDAB-108] | < 25 | > 1000 | – | – |
| O=C1CCC(N2Cc3cc(CNC(=O)c4cncs4)c(F)cc3C2=O)C(=O)N1 (centres unmarked) [FDAB-44] | < 25 | > 1000 | – | – |
| CC(C)(C)OC(=O)NCc1cc2c(cc1F)C(=O)N(C1CCC(=O)NC1=O)C2 (centres unmarked) [FDAB-5] | < 25 | > 1000 | – | – |
